According to ChEMBL document CHEMBL3399955, “Synthesis of a new series of dithiocarbamates with effective human carbonic anhydrase inhibitory activity and antiglaucoma action” (Bioorg Med Chem, 2015):
pKi: −log10 of the molar value.

system: Oryctolagus cuniculus; test: Antiglaucoma activity in New Zealand albino rabbit model of glaucoma assessed as reduction in intraocular pressure dosed as 2% eye drops immediately after injection of hypertonic saline measured 2 hrs post dose; assay type: functional

| SMILES | Activity |
| --- | --- |
| CCN[C@H]1C[C@H](C)S(=O)(=O)c2sc(S(N)(=O)=O)cc21 [DORZOLAMIDE] | 3 mmHg |

biological target: Carbonic anhydrase 9 (Homo sapiens, UniProt Q16790); test: Inhibition of human recombinant carbonic anhydrase 9 expressed in Escherichia coli pre-incubated for 15 mins by stopped-flow CO2 hydration assay

| pKi | SMILES |
| --- | --- |
| 8.17 | O=C(O)C1COCCN1C(=S)S (centres undefined) |
| 7.60 | S=C(S)NCCc1ccccc1 |
| 7.14 | O=C(O)C1CCCCN1C(=S)S (centres undefined) |
| 9.01 | OCCCCNC(=S)S |
| 7.10 | O=C(CN1CCN(C(=S)S)CC1)NC1CCCCC1 |
| 7.42 | CN(C)CCNC(=S)S |
| 8.02 | CC(=O)NC1CCCN(C(=S)S)C1 (centres undefined) |
| 9.04 | NS(=O)(=O)c1ccc(CCNC(=S)S)cc1 |
| 7.06 | O=C(O)[C@H]1CCCN(C(=S)S)C1 |
| 9.04 | OCCCNC(=S)S |
| 7.17 | O=C(O)C1CCCN(C(=S)S)C1 (centres undefined) |
| 7.11 | O=C(O)C1CCN(C(=S)S)CC1 |
| 7.26 | CC1COCCN1C(=S)S (centres undefined) |
| 7.38 | O=C(O)[C@@H]1CCCN(C(=S)S)C1 |
| 8.59 | OCCCCCNC(=S)S |
| 8.12 | OC1CCCN(C(=S)S)C1 (centres undefined) |

| SMILES | pKi |
| --- | --- |
| S=C(S)N[C@@H]1CN2CCC1CC2 | 7.08 |
| S=C(S)N1CCCCC1 | 9.04 |
| S=C(S)N[C@H]1CN2CCC1CC2 | 7.14 |
| S=C(S)NC1CN2CCC1CC2 (centres undefined) | 7.03 |

system: Oryctolagus cuniculus; test: Antiglaucoma activity in New Zealand albino rabbit model of glaucoma assessed as reduction in intraocular pressure dosed as 2% eye drops immediately after injection of hypertonic saline measured 1 hr post dose; assay type: functional

| SMILES | Activity |
| --- | --- |
| CCN[C@H]1C[C@H](C)S(=O)(=O)c2sc(S(N)(=O)=O)cc21 [DORZOLAMIDE] | 4 mmHg |

species on record: Homo sapiens; test: Reduction in intraocular pressure in patient with open-angle glaucoma; assay type: functional, Eye

| SMILES | inhibition (INH) |
| --- | --- |
| CC(=O)Nc1nnc(S(N)(=O)=O)s1 [ACETAZOLAMIDE] | 25% |

species on record: Homo sapiens; test: Reduction in intraocular pressure in glaucoma patient; assay type: functional, Eye

| SMILES | Activity |
| --- | --- |
| CCN[C@H]1C[C@H](C)S(=O)(=O)c2sc(S(N)(=O)=O)cc21 [DORZOLAMIDE] | 4 mmHg |
